Reference: ChEMBL document CHEMBL1155285, “3D-QSAR CoMFA/CoMSIA models based on theoretical active conformers of HOE/BAY-793 analogs derived from HIV-1 protease inhibitor complexes” (Eur J Med Chem, 2009)

Target: Protease (Human immunodeficiency virus 1, UniProt Q9YQ12)
Assay: Inhibition of HIV1 protease expressed in Escherichia coli K12 assessed as inhibition of enzyme activity

Sequence of Protease (Q9YQ12 whole entry): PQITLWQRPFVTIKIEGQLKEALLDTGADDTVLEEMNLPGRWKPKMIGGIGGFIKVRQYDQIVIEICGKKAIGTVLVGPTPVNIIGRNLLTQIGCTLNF

Row | Structure (SMILES) | IC50 [nM]
1 | CC(C)[C@H](NC(=O)OCc1ccccc1)C(=O)N[C@@H](Cc1ccccc1)[C@@H](O)[C@H](O)[C@H](Cc1ccccc1)NC(=O)[C@@H](NC(=O)OCc1ccccc1)C(C)C | 2
2 | CC(C)[C@H](NC(=O)N(C)Cc1ccccn1)C(=O)N[C@@H](Cc1ccccc1)C(O)C(O)[C@H](Cc1ccccc1)NC(=O)[C@@H](NC(=O)N(C)Cc1ccccn1)C(C)C (single isomer, unassigned) [A-76928] | 15.1
3 | CC(C)[C@H](NC(=O)[C@@H](CC(=O)O)Cc1ccccc1)C(=O)N[C@@H](Cc1ccccc1)[C@@H](O)[C@H](O)[C@H](Cc1ccccc1)NC(=O)[C@@H](NC(=O)[C@@H](CC(=O)O)Cc1ccccc1)C(C)C | 1.41
4 | CC(C)[C@H](NC(=O)[C@H](Cc1ccccc1)CS(=O)(=O)C(C)(C)C)C(=O)N[C@@H](Cc1ccccc1)[C@@H](O)[C@H](O)[C@H](Cc1ccccc1)NC(=O)[C@@H](NC(=O)[C@H](Cc1ccccc1)CS(=O)(=O)C(C)(C)C)C(C)C | 3.24
5 | CC(C)[C@H](NC(=O)[C@@H](O)Cc1ccccc1)C(=O)N[C@@H](Cc1ccccc1)[C@@H](O)[C@H](O)[C@H](Cc1ccccc1)NC(=O)[C@@H](NC(=O)[C@@H](O)Cc1ccccc1)C(C)C | 21.9
6 | CC(C)[C@H](NC(=O)[C@H](Cc1cccc2ccccc12)CS(=O)(=O)C(C)(C)C)C(=O)NC[C@@H](O)[C@H](O)CNC(=O)[C@@H](NC(=O)[C@H](Cc1cccc2ccccc12)CS(=O)(=O)C(C)(C)C)C(C)C | 2.19
7 | CC(C)(C)S(=O)(=O)C[C@@H](Cc1cccc2ccccc12)C(=O)N[C@@H](CC(N)=O)C(=O)N[C@@H](Cc1ccccc1)[C@@H](O)[C@H](O)[C@H](Cc1ccccc1)NC(=O)[C@H](CC(N)=O)NC(=O)[C@H](Cc1cccc2ccccc12)CS(=O)(=O)C(C)(C)C | 100
8 | CC(C)[C@H](NC(=O)CCS(=O)(=O)C(C)(C)C)C(=O)N[C@@H](Cc1ccccc1)[C@@H](O)[C@H](O)[C@H](Cc1ccccc1)NC(=O)[C@@H](NC(=O)CCS(=O)(=O)C(C)(C)C)C(C)C | 3.98
9 | CC(C)[C@H](NC(=O)[C@H](Cc1cccc2ccccc12)CS(=O)(=O)C(C)(C)C)C(=O)N[C@@H](CCc1ccncc1)[C@@H](O)[C@H](O)[C@H](CCc1ccncc1)NC(=O)[C@@H](NC(=O)[C@H](Cc1cccc2ccccc12)CS(=O)(=O)C(C)(C)C)C(C)C | 141
10 | CC(C)[C@H](NC(=O)[C@H](Cc1cccc2ccccc12)CS(=O)(=O)C(C)(C)C)C(=O)N[C@@H](Cc1ccc(O)cc1)[C@@H](O)[C@H](O)[C@H](Cc1ccc(O)cc1)NC(=O)[C@H](NC(=O)[C@H](Cc1cccc2ccccc12)CS(=O)(=O)C(C)(C)C)C(C)C | 2.88
11 | CC(C)(C)S(=O)(=O)C[C@@H](Cc1cccc2ccccc12)C(=O)N[C@H](C(=O)N[C@@H](Cc1ccccc1)[C@@H](O)[C@H](O)[C@H](Cc1ccccc1)NC(=O)[C@@H](NC(=O)[C@H](Cc1cccc2ccccc12)CS(=O)(=O)C(C)(C)C)C1CCCCC1)C1CCCCC1 | 1.7
12 | CC(C)[C@H](NC(=O)[C@H](Cc1cccc2ccccc12)CS(=O)(=O)C(C)(C)C)C(=O)N[C@@H](CCc1ccccc1)[C@@H](O)[C@H](O)[C@H](CCc1ccccc1)NC(=O)[C@@H](NC(=O)[C@H](Cc1cccc2ccccc12)CS(=O)(=O)C(C)(C)C)C(C)C | 363
13 | COc1ccc(C[C@H](NC(=O)[C@@H](NC(=O)[C@H](Cc2cccc3ccccc23)CS(=O)(=O)C(C)(C)C)C(C)C)[C@@H](O)[C@H](O)[C@H](Cc2ccc(OC)cc2OC)NC(=O)[C@@H](NC(=O)[C@H](Cc2cccc3ccccc23)CS(=O)(=O)C(C)(C)C)C(C)C)c(OC)c1 | 18.2
14 | CCCCC[C@H](NC(=O)[C@@H](NC(=O)[C@H](Cc1cccc2ccccc12)CS(=O)(=O)C(C)(C)C)C(C)C)[C@@H](O)[C@H](O)[C@@H](CCCCC)NC(=O)[C@H](NC(=O)[C@H](Cc1cccc2ccccc12)CS(=O)(=O)C(C)(C)C)C(C)C | 1
15 | CC(C)[C@H](NC(=O)[C@@H](N)Cc1ccccc1)C(=O)N[C@@H](Cc1ccccc1)[C@@H](O)[C@H](O)[C@H](Cc1ccccc1)NC(=O)[C@@H](NC(=O)[C@@H](N)Cc1ccccc1)C(C)C | 0.851
16 | CC(C)(C)S(=O)(=O)C[C@@H](Cc1cccc2ccccc12)C(=O)N[C@@H](Cc1c[nH]cn1)C(=O)N[C@@H](Cc1ccccc1)[C@@H](O)[C@H](O)[C@H](Cc1ccccc1)NC(=O)[C@H](Cc1c[nH]cn1)NC(=O)[C@H](Cc1cccc2ccccc12)CS(=O)(=O)C(C)(C)C | 339
17 | CC(C)[C@H](NC(=O)CCS(=O)(=O)c1ccncc1)C(=O)N[C@@H](Cc1ccccc1)[C@@H](O)[C@H](O)[C@H](Cc1ccccc1)NC(=O)[C@@H](NC(=O)CCS(=O)(=O)c1ccncc1)C(C)C | 3.98
18 | CC(C)[C@H](NC(=O)COc1cccc2ccccc12)C(=O)N[C@@H](Cc1ccccc1)[C@@H](O)[C@H](O)[C@H](Cc1ccccc1)NC(=O)[C@@H](NC(=O)COc1cccc2ccccc12)C(C)C | 38

Continued, values first:

Row | IC50 [nM] | Structure (SMILES)
19 | 0.302 | CCC(C)[C@H](NC(=O)[C@H](Cc1cccc2ccccc12)CS(=O)(=O)C(C)(C)C)C(=O)N[C@@H](Cc1ccccc1)[C@@H](O)[C@H](O)[C@H](Cc1ccccc1)NC(=O)[C@@H](NC(=O)[C@H](Cc1cccc2ccccc12)CS(=O)(=O)C(C)(C)C)C(C)CC (stereo partly specified)
20 | 0.794 | CC(C)[C@H](NC(=O)[C@H](Cc1cccc2ccccc12)NS(C)(=O)=O)C(=O)N[C@@H](Cc1ccccc1)[C@@H](O)[C@H](O)[C@H](Cc1ccccc1)NC(=O)[C@@H](NC(=O)[C@H](Cc1cccc2ccccc12)NS(C)(=O)=O)C(C)C
21 | 0.339 | COc1ccc(C[C@H](CS(=O)(=O)C(C)(C)C)C(=O)N[C@H](C(=O)N[C@@H](Cc2ccccc2)[C@@H](O)[C@H](O)[C@H](Cc2ccccc2)NC(=O)[C@@H](NC(=O)[C@H](Cc2ccc(OC)cc2)CS(=O)(=O)C(C)(C)C)C(C)C)C(C)C)cc1
22 | 0.891 | CC(C)[C@H](NC(=O)[C@H](Cc1ccccc1)NC(=O)[C@@H](O)C(O)[C@@H](O)C(O)O)C(=O)N[C@@H](Cc1ccccc1)[C@@H](O)[C@H](O)[C@H](Cc1ccccc1)NC(=O)[C@@H](NC(=O)[C@H](Cc1ccccc1)NC(=O)[C@@H](O)[C@@H](O)[C@@H](O)C(O)O)C(C)C (single isomer, unassigned)
23 | 0.302 | CC(C)(C)S(=O)(=O)C[C@@H](Cc1cccc2ccccc12)C(=O)N[C@H](C(=O)N[C@@H](Cc1ccccc1)[C@@H](O)[C@H](O)[C@H](Cc1ccccc1)NC(=O)[C@@H](NC(=O)[C@H](Cc1cccc2ccccc12)CS(=O)(=O)C(C)(C)C)C1CCCC1)C1CCCC1
24 | 0.741 | CC(C)(C)S(=O)(=O)C[C@@H](Cc1cccc2ccccc12)C(=O)N[C@@H](CCC(=O)O)C(=O)N[C@@H](Cc1ccccc1)[C@@H](O)[C@H](O)[C@H](Cc1ccccc1)NC(=O)[C@H](CCC(=O)O)NC(=O)[C@H](Cc1cccc2ccccc12)CS(=O)(=O)C(C)(C)C
25 | 0.398 | CCC[C@H](NC(=O)[C@H](Cc1cccc2ccccc12)CS(=O)(=O)C(C)(C)C)C(=O)N[C@@H](Cc1ccccc1)[C@@H](O)[C@H](O)[C@H](Cc1ccccc1)NC(=O)[C@H](CCC)NC(=O)[C@H](Cc1cccc2ccccc12)CS(=O)(=O)C(C)(C)C
26 | 0.398 | CC(C)[C@H](NC(=O)[C@H](Cc1cccc2ccccc12)CS(=O)(=O)C(C)(C)C)C(=O)N[C@@H](Cc1cccc2c1OCO2)[C@@H](O)[C@H](O)[C@H](Cc1cccc2c1OCO2)NC(=O)[C@@H](NC(=O)[C@H](Cc1cccc2ccccc12)CS(=O)(=O)C(C)(C)C)C(C)C
27 | 0.302 | CC(O)[C@H](NC(=O)[C@H](Cc1cccc2ccccc12)CS(=O)(=O)C(C)(C)C)C(=O)N[C@@H](Cc1ccccc1)[C@@H](O)[C@H](O)[C@H](Cc1ccccc1)NC(=O)[C@@H](NC(=O)[C@H](Cc1cccc2ccccc12)CS(=O)(=O)C(C)(C)C)C(C)O (stereo partly specified)
28 | 0.501 | CC(C)(C)[C@H](NC(=O)[C@H](Cc1cccc2ccccc12)CS(=O)(=O)C(C)(C)C)C(=O)N[C@@H](Cc1ccccc1)[C@@H](O)[C@H](O)[C@H](Cc1ccccc1)NC(=O)[C@@H](NC(=O)[C@H](Cc1cccc2ccccc12)CS(=O)(=O)C(C)(C)C)C(C)(C)C
29 | 0.302 | CC(C)[C@H](NC(=O)[C@H](Cc1cccc2ccccc12)CS(=O)(=O)C(C)(C)C)C(=O)N[C@@H](Cc1ccccc1)[C@@H](O)[C@H](O)[C@H](Cc1ccccc1)NC(=O)[C@@H](NC(=O)[C@H](Cc1cccc2ccccc12)CS(=O)(=O)C(C)(C)C)C(C)C
30 | 1.29 | CC(C)[C@H](NC(=O)OCc1cccnc1)C(=O)N[C@@H](Cc1ccccc1)[C@@H](O)[C@H](O)[C@H](Cc1ccccc1)NC(=O)[C@@H](NC(=O)OCc1cccnc1)C(C)C
31 | 0.794 | CC(C)[C@H](NC(=O)[C@H](Cc1ccncc1)CS(=O)(=O)C(C)(C)C)C(=O)N[C@@H](Cc1ccccc1)[C@@H](O)[C@H](O)[C@H](Cc1ccccc1)NC(=O)[C@@H](NC(=O)[C@H](Cc1ccncc1)CS(=O)(=O)C(C)(C)C)C(C)C
